Columns and labels:
[1] = system: Staphlococcus aureus; experiment: Staphlococcus aureus bacterial cultures (plate, clear areas); type: cell-based; conditions: 150 μL beads or 10 mg tobramycin disc on plate
Description: Staphlococcus aureus bacterial cultures were performed in the microbiology department of Hahnemann University Hospital. On each plate 150 μL of control beads, 150 μL, of antibiotic beads and a 10 mg tobramycin disc were placed in order to see any bactericidal activity.

[2] = system: bacterial strains cultured directly from clinically retrieved gentamicin-loaded bone cement; conditions: cited from earlier work

| Compound | bactericidal activity (clear areas indicating lack of bacterial growth) [1] | gentamicin resistant strains [2] |
| --- | --- | --- |
| NC[C@H]1O[C@H](O[C@H]2[C@H](O)[C@@H](O[C@H]3O[C@H](CO)[C@@H](O)[C@H](N)[C@H]3O)[C@H](N)C[C@@H]2N)[C@H](N)C[C@@H]1O [tobramycin disc, tobramycin] | clear areas present |  |
| gentamicin |  | 19 of 28 |

Source: US20100178250A1, “Method of Local Delivery of Bioactive and Diagnostic Agents Using Magnetizable Bone Cement” (Philadelphia Health & Education Corporation, priority 2006, published 2010)
